Reference: patent US20140315322A1 (FUSO PHARMACEUTICAL INDUSTRIES, LTD., priority 2011, published 2014)
Several values for one entry are separate records, joined by “and”; a condition that tells them apart may be missing. Equal values may be shown once.

Key:
[1] = clinical; conditions: blood plasma of individual dialysis patients treated with acetic acid-containing dialysis fluid, dialysis time 4 hr
Method: Into a polypropylene tube, each sample (400 μL, samples for calibration curve and human blood plasma) was taken, and the internal standard solution IS-W1 (100 μL) was added thereto. Further, 10% sulfosalicylic acid (special grade, manufactured by Wako Pure Chemical Industries) solution (100 μL) was added thereto and stirred. To this solution was added MTBE (400 μL, Lot No. EPF0734, manufactured by Wako Pure Chemical Industries) and stirred for 1 minute. After that, the mixture was subjected to centrifugation (RX-200, manufactured by TOMY SEIKO) at 10000 rpm at 4° C. for 5 minutes, and the supernatant (200 μL) was taken into another glass vial. Then, to the supernatant was added N-methyl-N-(tert-butyldimethylsilyl)trifluoroacetamide (MTBSTFA) (5 to 10 μL, Lot No. BCBC7878, manufactured by ALDRICH) and heated with Block Heater (DTU-2B, manufactured by TAITEC) at 60° C. for 1 to 2 hours. After that, the resultant solution was measured by using GC/MS (JMS-AMII150, manufactured by JEOL) in the following conditions.
Samples were pretreated in the same method as that of “4. Pretreatment method and measurement method for samples” of Example 1, and then measured by GC/MS (5975C GCMSD, manufactured by Agilent) in the following conditions. […]
(§1) The measured value of each sample was calculated by applying the peak area ratio or ΔE to the calibration curve, and rounding off to one decimal place.

[2] = clinical; conditions: blood plasma of individual dialysis patients treated with acetic acid-containing dialysis fluid, dialysis time 4 hr; remark: listed apart in the source
Method: From ΔE of samples for calibration curve (W2 to 8, n=1), calibration curve (Y=aX+b, Y: ΔE, X: concentration μmol/L) was prepared by using least-squares method. No weighting of calibration curve was carried out. The range of quantitative analysis was from 20 to 2000 μmol/L.
as §1

## CC(=O)O [acetic acid]
[1]
  Measured value, GC/MS method: 1745.5 µmol/L and 1854.9 µmol/L and 1991.5 µmol/L
[1]; human, plasma, other: dialysis with a dialysis fluid containing acetic acid, Measured value, GC/MS method
  concentration at 4 h: 1790 µM
[2]
  Measured value, Enzyme method: 1620.3 µmol/L and 1653.5 µmol/L and 1896.4 µmol/L
[2]; human, plasma, other: dialysis with a dialysis fluid containing acetic acid, Measured value, Enzyme method
  concentration at 4 h: 1680 µM
